Results on one molecule are retold here after patent publication US6086918A, “Oral peptide pharmaceutical products” (Unigene Laboratories, Inc., priority 1998, dated 2000).

Series [1] in a line: Pharmacokinetics of oral calcitonin (10.5 mg) in humans. The class given is in vivo, human. The note with it: 10 milligrams of salmon calcitonin alone administered to humans. The protocol: The capsules were coated for 20 min with hydroxypropylmethylcellulose phthalate 50 in a pan coater and stored at 4° C. Fasted subjects were given 1 capsule followed by a glass of orange juice in the morning of the study. Samples of blood were taken 15 minutes before taking the capsules and at the indicated times after taking the calcitonin capsule. The concentration of calcitonin in blood was determined by competitive radioimmunoassay.

Series [2] can be described thus: Blood levels of salmon calcitonin after direct injection of active components into duodenum, ilium or colon. The class given is in vivo. Conditions: active components injected directly into the duodenum. An excerpt: The acid is believed to lower the local intestinal pH (where the active agent has been released) to levels below the optimal range for many intestinal proteases. This decrease in pH reduces the proteolytic activity of the intestinal proteases, thus affording protection to the peptide from potential degradation. The activity of these proteases is diminished by the temporarily acidic environment provided by the invention. It is preferred that sufficient acid be provided that local intestinal pH is lowered temporarily to 5.5 or below, preferably 4.7 or below and more preferably 3.5 or below. The sodium bicarbonate test described below (in the section captioned "the pH-Lowering Agent") is indicative of the required acid amount. […] The absorption enhancers of the invention synergistically promote peptide absorption into the blood while conditions of reduced proteolytic activity prevail.

Series [3] in a line: Applicant's internal comparative tests of oral formulation, sCT versus PTH. The class given is in vivo. The note with it: oral formulation of the invention.
For series [4] the following is noted: cited from earlier work.

For orientation: half-life means how long it takes for the measured level to halve. Turning to `CC(C)C[C@H](NC(=O)[C@H](CCCCN)NC(=O)CNC(=O)[C@H](CC(C)C)NC(=O)[C@@H](NC(=O)[C@@H]1CSSC[C@H](N)C(=O)N[C@@H](CO)C(=O)N[C@@H](CC(N)=O)C(=O)N[C@@H](CC(C)C)C(=O)N[C@@H](CO)C(=O)N[C@@H]([C@@H](C)O)C(=O)N1)C(C)C)C(=O)N[C@@H](CO)C(=O)N[C@@H](CCC(N)=O)C(=O)N[C@@H](CCC(=O)O)C(=O)N[C@@H](CC(C)C)C(=O)N[C@@H](Cc1c[nH]cn1)C(=O)N[C@@H](CCCCN)C(=O)N[C@@H](CC(C)C)C(=O)N[C@@H](CCC(N)=O)C(=O)N[C@H](C(=O)N[C@@H](Cc1ccc(O)cc1)C(=O)N1CCC[C@H]1C(=O)N[C@@H](CCCNC(=N)N)C(=O)N[C@H](C(=O)N[C@@H](CC(N)=O)C(=O)N[C@H](C(=O)NCC(=O)N[C@@H](CO)C(=O)NCC(=O)N[C@H](C(=O)N1CCC[C@H]1C(N)=O)[C@@H](C)O)[C@@H](C)O)[C@@H](C)O)[C@@H](C)O` [Salmon calcitonin], the “serum levels of salmon calcitonin” value in series [1] is recorded as “no detectable serum levels”. In series [2], the “Tmax for blood levels of salmon calcitonin” value fell in the range of 5 to 15 min. Moreover, in series [3], the “bioavailability compared with parathyroid hormone” value is on record as “significantly exceeds that of parathyroid hormone”. Also, the “peak levels at which some patients report gastrointestinal distress” value in series [4] (in vivo) is no less than 200 picograms per milliliter. The “detectable blood levels after injection” value in series [4] (injection at conventional dosages) is reported as “no detectable blood levels more than two hours after injection”. The “peak levels at which effective against osteoporosis” value in series [4] (nasal, 200 International units) was no less than 10 picograms per milliliter. The half-life in series [4] (subcutaneous administration in man) is 20 to 40 min. Moreover, the peak serum concentration entry in series [4] (subcutaneous, 100 International units) is on record as “about 250 picograms per milliliter”.
